Measurements taken from patent publication EP4603105A1, “PHARMACEUTICAL COMPOSITION CONTAINING CYCLIC COMPOUND HAVING SELECTIVE KRAS INHIBITORY EFFECT AGAINST HRAS AND NRAS” (CHUGAI SEIYAKU KABUSHIKI KAISHA, priority 2022, dated 2024).
*1 amine or outer side, *2 acyl side, *3 side chain or, on linkers, in order; H or OH if unused. Where a SMILES comes first, the peptide text is derived from it. Bridges are numbered along the chain shown (N, C = ends). [ ]: non-standard residue; d: D form. The star is where a group is joined. X25 = O=C([C@H](Cc1ccc(C(F)(F)F)cc1)N(CCC(F)(F)F)[*:1])[*:2]; hPhe(3-Cl-4-CF3) = N[C@@H](CCc1ccc(C(F)(F)F)c(Cl)c1)C(=O)O; NPrPhe(4-CF3) = CCCN[C@@H](Cc1ccc(C(F)(F)F)cc1)C(=O)O; NMeGly(cPent) = CN[C@H](C(=O)O)C1CCCC1; NMeD = CN[C@@H](CC(=O)O)C(=O)O; NMeL = CN[C@@H](CC(C)C)C(=O)O; Morpholide = C1CN(*)CCO1; NMeA = CN[C@@H](C)C(=O)O; Piperidide = C1CCN(*)CC1; Ac5c = NC1(C(=O)O)CCCC1; Aze = O=C(O)[C@@H]1CCN1; Ac4c = NC1(C(=O)O)CCC1; Sar = CNCC(=O)O

Experiments:
[1] = test system: human lung cancer strain NCI-H441; type: cell-based
How it was run: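 Step one: dispense the test compound in serial DMSO dilutions. Step three: add the reagent and measure […].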

HRAS wild-type protein = HRAS wild-type protein (Homo sapiens, UniProt P01112); test: Binding to HRAS by surface plasmon resonance (SPR), KD and KD ratio to KRAS
How it was run: (§1)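 Biotinylated GDP-bound RAS was captured at about 100–300 RU. Running buffer: HBS pH 7.4, 10 mM MgCl2, 10 µM GDP, 1 mM DTT, 0.01% Tween 20, 4% DMSO.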

[2] = molecular target: GDP-bound NRAS wild-type protein (Homo sapiens, UniProt P01111); test: Binding to NRAS by surface plasmon resonance (SPR), KD and KD ratio to KRAS
How it was run: as §1

[3] = ratio of the KD value with respect to HRAS wild-type protein to the KD value with respect to KRAS
[4] = ratio of the KD value with respect to GDP-bound NRAS wild-type protein to the KD value with respect to KRAS
[5] = ratio of KD for HRAS wild-type protein to KD for KRAS
[6] = ratio of KD for GDP-bound NRAS wild-type protein to KD for KRAS

HRAS wild-type protein, sequence (P01112 whole entry): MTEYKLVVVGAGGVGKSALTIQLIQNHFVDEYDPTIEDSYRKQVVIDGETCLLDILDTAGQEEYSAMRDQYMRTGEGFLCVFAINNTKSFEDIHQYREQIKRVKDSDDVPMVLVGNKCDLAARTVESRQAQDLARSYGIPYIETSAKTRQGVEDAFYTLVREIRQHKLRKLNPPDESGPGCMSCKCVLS
GDP-bound NRAS wild-type protein, sequence (P01111 whole entry): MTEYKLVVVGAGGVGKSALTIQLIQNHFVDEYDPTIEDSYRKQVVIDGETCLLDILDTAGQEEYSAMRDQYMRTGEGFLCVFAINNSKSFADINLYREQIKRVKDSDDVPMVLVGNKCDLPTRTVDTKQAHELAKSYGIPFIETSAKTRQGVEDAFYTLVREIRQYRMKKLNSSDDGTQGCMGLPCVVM

Row | IC50 [1] | SMILES | HRAS /KRAS (HRAS wild-type protein; [3]) | NRAS /KRAS [2, 4] | HRAS /KRAS (HRAS wild-type protein; [5]) | NRAS /KRAS [2, 6]
1 | 13.9 nM | CCO[C@@H]1C[C@H]2C(=O)NC3(CCC3)C(=O)N(C)[C@@H](C3CCCC3)C(=O)N(C)[C@H](C(=O)N(C)C)CC(=O)N(C)[C@@H](COC)C(=O)N[C@@H]([C@@H](C)CC)C(=O)N(C)CC(=O)N(C)[C@H]3CCCCCN(C3=O)[C@@H](Cc3ccc(C(F)(F)F)cc3)C(=O)N(C)CC(=O)N[C@@H](CCc3cc(F)c(C(F)(F)F)c(F)c3)C(=O)N2C1 [PP0674] | B (a compound having 3 or more and less than 10 is denoted as B) | B (a compound having 3 or more and less than 10 is denoted as B) | – | –
2 | 5.9 nM | C#CC[C@H]1C(=O)N[C@@H]([C@@H](C)CC)C(=O)N(C)CC(=O)N(C)[C@H]2C/C=C\CCN(C2=O)[C@@H](Cc2ccc(C(F)(F)F)cc2)C(=O)N(C)CC(=O)N[C@@H](CCc2cc(F)c(C(F)(F)F)c(F)c2)C(=O)N2C[C@H](OCC)C[C@H]2C(=O)NC2(CC(C)(C)C2)C(=O)N(C)[C@@H](C2CCCC2)C(=O)N(C)[C@H](C(=O)N(C)CCC)CC(=O)N1C [PP2074] | A (a compound having 10 or more and less than 20 is denoted as A) | A (a compound having 10 or more and less than 20 is denoted as A) | – | –
3 | 23.1 nM | CC[C@H](C)[C@@H]1NC(=O)[C@H](CC(C)C)N(C)C(=O)C[C@@H](C(=O)N2CCOCC2)N(C)C(=O)[C@H](C2CCCC2)N(C)C(=O)C2(CC2)NC(=O)[C@@H]2CCCN2C(=O)[C@H](CCc2cc(F)c(C(F)(F)F)c(F)c2)NC(=O)CN(C)C(=O)[C@H](Cc2ccc(C(F)(F)F)cc2)N2CCCC[C@@H](C2=O)N(C)C(=O)CN(C)C1=O [PP0559] | B (a compound having 3 or more and less than 10 is denoted as B) | B (a compound having 3 or more and less than 10 is denoted as B) | – | –
4 | 5.7 nM | C#CCN1CC(=O)N(C)[C@H]2C/C=C\CCN(C2=O)[C@@H](Cc2ccc(C)cc2)C(=O)N(C)CC(=O)N[C@@H](CCc2cc(F)c(C(F)(F)F)c(F)c2)C(=O)N2C[C@H](OCC)C[C@H]2C(=O)NC2(CC(C)(C)C2)C(=O)N(C)[C@@H](C2CCCC2)C(=O)N(C)[C@H](C(=O)N(C)C)CC(=O)N(C)[C@@H](CCC)C(=O)N[C@@H]([C@@H](C)CC)C1=O [PP2095] | A (a compound having 10 or more and less than 20 is denoted as A) | A (a compound having 10 or more and less than 20 is denoted as A) | – | –
5 | 2.7 nM | CCO[C@@H]1C[C@H]2C(=O)N(C)C3(CC(C)(C)C3)C(=O)N(C)[C@@H](C3CCCC3)C(=O)N(C)[C@H](C(=O)N(C)C)CC(=O)N(C)[C@H]3CCC/C=C/c4ccc(cc4)C[C@@H](C(=O)N(C)CC(=O)N[C@@H](CCc4cc(F)c(C(F)(F)F)c(F)c4)C(=O)N2C1)N1CC/C=C\C[C@@H](C1=O)N(C)C(=O)CN(C)C(=O)[C@H]([C@@H](C)CC)NC3=O [PP3060] | – | – | B (a compound having 3 or more and less than 10 is denoted as B) | B (a compound having 3 or more and less than 10 is denoted as B)
6 | 27.9 nM | CCCN1C(=O)CN(C)C(=O)[C@@H]2CCN2C(=O)[C@H]([C@@H](C)CC)NC(=O)[C@H](CC(C)C)N(C)C(=O)C[C@@H](C(=O)N(C)C)N(C)C(=O)[C@H](C2CCCC2)N(C)C(=O)C2(CCC2)NC(=O)[C@@H]2CCCN2C(=O)[C@H](CCc2ccc(C(F)(F)F)c(Cl)c2)NC(=O)CN(C)C(=O)[C@@H]1Cc1ccc(C(F)(F)F)cc1 [PP0430] ([NMeL]I[Aze][Sar][NPrPhe(4-CF3)][Sar][hPhe(3-Cl-4-CF3)]P[Ac4c][NMeGly(cPent)][NMeD]-NMe2; lactam N-11) | B (a compound having 3 or more and less than 10 is denoted as B) | B (a compound having 3 or more and less than 10 is denoted as B) | – | –
7 | 628 nM | CC[C@H](C)[C@@H]1NC(=O)[C@H](CC(C)C)N(C)C(=O)C[C@@H](C(=O)N2CCOCC2)N(C)C(=O)[C@H](C2CCCC2)N(C)C(=O)C2(CCCC2)NC(=O)[C@@H]2CC(=O)CN2C(=O)[C@H](CCc2cc(F)c(C(F)(F)F)c(F)c2)NC(=O)CN(C)C(=O)[C@H](Cc2ccc(C(F)(F)F)cc2)N2CCCCC[C@@H](C2=O)N(C)C(=O)CN(C)C1=O [PP0493] | B (a compound having 3 or more and less than 10 is denoted as B) | B (a compound having 3 or more and less than 10 is denoted as B) | – | –
8 | 11.1 nM | CC[C@H](C)[C@@H]1NC(=O)[C@H](CC(C)C)N(C)C(=O)C[C@@H](C(=O)N2CCOCC2)N(C)C(=O)[C@H](C2CCCC2)N(C)C(=O)C2(CCCC2)NC(=O)[C@@H]2CCCN2C(=O)[C@H](CCc2ccc(C(F)(F)F)c(Cl)c2)NC(=O)CN(C)C(=O)[C@H](Cc2ccc(C(F)(F)F)cc2)N(CCC(F)(F)F)C(=O)CN(C)C(=O)CN(C)C1=O [PP0131] ([NMeL]I[Sar][Sar][X25][Sar][hPhe(3-Cl-4-CF3)]P[Ac5c][NMeGly(cPent)][NMeD]-Morpholide; lactam N-11) | – | – | C (A compound having a KD ratio of 0.1 or more and less than 3 is denoted as C) | B (a compound having 3 or more and less than 10 is denoted as B)
9 | 10.3 nM | CCCN(C)C(=O)[C@@H]1CC(=O)N(C)[C@@H](C2CCC2)C(=O)N[C@@H]([C@@H](C)CC)C(=O)N(C)CC(=O)N(C)[C@H]2C/C=C\CCN(C2=O)[C@@H](Cc2ccc(C(F)(F)F)cc2)C(=O)N(C)CC(=O)N[C@@H](CCc2cc(F)c(C(F)(F)F)c(F)c2)C(=O)N2C[C@@H](C)C[C@H]2C(=O)NC2(CCC2)C(=O)N(C)[C@@H](C2CCCC2)C(=O)N1C [PP2083] | B (a compound having 3 or more and less than 10 is denoted as B) | A (a compound having 10 or more and less than 20 is denoted as A) | – | –
10 | 16 nM | CCC[C@@H]1C[C@H]2C(=O)NC3(CC(C)(C)C3)C(=O)N(C)[C@@H](C3CCCC3)C(=O)N(C)[C@H](C(=O)N(C)C)CC(=O)N(C)[C@@H](C)C(=O)N[C@@H]([C@@H](C)CC)C(=O)N(C)CC(=O)N(C)[C@H]3C/C=C\CCN(C3=O)[C@@H](Cc3ccc(C(F)(F)F)cc3)C(=O)N(C)CC(=O)N[C@@H](CCc3cc(F)c(C(F)(F)F)c(F)c3)C(=O)N2C1 [PP2273] | A (a compound having 10 or more and less than 20 is denoted as A) | AA (a compound having 20 or more is denoted as AA) | – | –
11 | 2.2 nM | CCC[C@H]1C(=O)N[C@@H]([C@@H](C)CC)C(=O)N(C2CC2)CC(=O)N(C)[C@H]2C/C=C\CCN(C2=O)[C@@H](Cc2ccc(C)cc2)C(=O)N(C)CC(=O)N[C@@H](CCc2ccc(C(F)(F)F)c(OC)c2)C(=O)N2C[C@H](OCC)C[C@H]2C(=O)N(C)C2(CCC2)C(=O)N(C)[C@@H](C2CCCC2)C(=O)N(C)[C@H](C(=O)N(C)C)CC(=O)N1C [PP2328] | A (a compound having 10 or more and less than 20 is denoted as A) | A (a compound having 10 or more and less than 20 is denoted as A) | – | –

Row | SMILES | IC50 [1] | HRAS /KRAS (HRAS wild-type protein; [3]) | NRAS /KRAS [2, 4] | HRAS /KRAS (HRAS wild-type protein; [5]) | NRAS /KRAS [2, 6]
12 | CCCN1C(=O)[C@@H]2CCN2C(=O)[C@H](C)N(C)C(=O)[C@H]([C@@H](C)CC)NC(=O)[C@H](CC(C)C)N(C)C(=O)C[C@@H](C(=O)N2CCCCC2)N(C)C(=O)[C@H](C2CCCC2)N(C)C(=O)C2(CCCC2)NC(=O)[C@@H]2CCCN2C(=O)[C@H](CCc2ccc(C(F)(F)F)c(Cl)c2)NC(=O)CN(C)C(=O)[C@@H]1Cc1ccc(C(F)(F)F)cc1 [PP0180] ([NMeL]I[NMeA][Aze][NPrPhe(4-CF3)][Sar][hPhe(3-Cl-4-CF3)]P[Ac5c][NMeGly(cPent)][NMeD]-Piperidide; lactam N-11) | 7.5 nM | – | – | C (A compound having a KD ratio of 0.1 or more and less than 3 is denoted as C) | C (A compound having a KD ratio of 0.1 or more and less than 3 is denoted as C)
